Assay results as given in patent US11766649B2, “Coating method” (ASTON PARTICLE TECHNOLOGIES LIMITED, priority 2017, dated 2023).
Blank lines part the entries; values can stand above or below the compound they belong to.

Columns and labels:
Format in all cases: physicochemical
[1] = USP II basket dissolution of carbamazepine/PVP powders in distilled water; details: 200 mg dose, 37° C., 50 rpm, over the 4 h time period, FIG. 7
Description: (§1) The dissolution rate was analysed using standard USP II dissolution apparatus using the basket assembly dissolution vessels. Standard 200 mg dose powders were investigated to mimic a patient dose, with dissolution conditions maintained at 37° C. and the basket apparatus rotated at 50 rpm in distilled water. Powders were placed in the basket and submerged in to the dissolution apparatus and ran over 4 h. Samples were taken at predetermined time intervals, with each sample volume replaced with the same amount of fresh dissolution media to maintain sink conditions. The samples were filtered appropriately and analysed for drug content using HPLC apparatus at each of the time points. All results were taken in triplicate, and are represented in FIG. 7.

[2] = USP II basket dissolution of phenytoin/PVP powders in distilled water; details: 200 mg dose, 37° C., 50 rpm, 4 h, FIG. 9
Description: as §1, with “9.” for “7.”

[3] = Dissolution of carbamazepine dry coated with micronized sodium lauryl sulphate (FIG. 10)
[4] = USP II basket dissolution of piroxicam/PVP powders in 0.1N hydrochloric acid; details: 20 mg dose, 37° C., 50 rpm, end of the 4 h interval, FIG. 8
Description: as §1, with “20” for “200”, “0.1N hydrochloric acid.” for “distilled water.”, “8.” for “7.”

[5] = USP II basket dissolution of flucloxacillin sodium/polymer powders in pH 6.8 phosphate buffer; details: 250 mg dose, 37° C., 50 rpm, 60 mins, FIG. 13
Description: as §1, with “250” for “200”, “pH 6.8 phosphate buffer.” for “distilled water.”, “60 mins.” for “4 h.”, “and are represented in FIG. 7.” left out

Structure (SMILES): NC(=O)N1c2ccccc2C=Cc2ccccc21 [micronized carbamazepine, carbamazepine]
drug release [1]: very poor release

Structure (SMILES): CN1C(C(=O)Nc2ccccn2)=C(O)c2ccccc2S1(=O)=O [control piroxicam, piroxicam]
drug release [4]: 29.7%

Structure (SMILES): Cc1onc(-c2c(F)cccc2Cl)c1C(=O)N[C@@H]1C(=O)N2[C@@H]1SC(C)(C)[C@@H]2C(=O)O [flucloxacillin sodium]
release of flucloxacillin sodium [5]: full release within a minute

Continued, values first:

release [2]: 4.7%
Structure (SMILES): O=C1NC(=O)C(c2ccccc2)(c2ccccc2)N1 [phenytoin alone, phenytoin]

drug release [3]: around 38%
Structure (SMILES): NC(=O)N1c2ccccc2C=Cc2ccccc21 [off the shelf carbamazepine (CBZ), carbamazepine]
